Converted amounts (≈) assume the structure as drawn.
Columns and labels:
Type in all cases: cell-based, Mycobacterium tuberculosis
[1] = test system: Mtb H37Rv without supplemental biotin; conditions: 90% inhibition, 14 days
[2] = test system: Mtb H37Rv with 1 μM supplemental biotin
[3] = test system: Mtb BioA under-expression strain (BioA-UE); conditions: 90% inhibition, biotin-free Sauton's medium, 14 days

Compound: C=C(CCC(=O)O)c1nc2ccccc2s1 [Compound 13, 4-(benzothiazol-2-yl)pentenoic acid]
- MIC90 WT -biotin [1]: 2.5 µM (≈ 0.583 µg/mL)
- shift of MIC upon addition of biotin [2]: approximately 3 fold
- MIC90 WT+biotin ([2]; 90% inhibition, Mtb H37Rv with 1 μM supplemental biotin, 14 days): 8.7 µM (≈ 2.03 µg/mL)
- MIC90 BioA-UE [3]: 0.7 µM (≈ 0.163 µg/mL)

Source: PMC4305006 (Chemistry & biology, 2014)
